How the values were obtained:
[1] = tested on: NCI-H292: human mucoepidermoid lung carcinoma cells; assay: MTT assay on NCI-H292; format: cell-based; details: NCI-H292, 96 h, growth inhibition, 96 h incubation
Method: (§1) The analysis of the cytotoxic effects of the ADCs was carried out with various cell lines:
(§2) The cells were cultivated by the standard method as stated by the American Tissue Culture Collection (ATCC) or the Leibniz-lnstitut DSMZ-Deutsche Sammlung von Mikroorganismen und Zellkulturen GmbH (DSMZ) for the cell lines in question.
(§3) The cells were then incubated in an incubator at 37° C. and 5% carbon dioxide. […] To this end, the MTT reagent was incubated with the cells for 4 h, followed by lysis of the cells overnight by addition of the detergent. […] The measured data were used to calculate the ICo50 of the growth inhibition using the DRC (dose response curve). The proliferation of cells which were not treated with test substance but were otherwise identically treated was defined as the 100% figure.

[2] = tested on: SK-HEP-1: human liver cell cancer line; assay: MTT assay on SK-HEP-1; format: cell-based; details: SK-HEP1, 96 h, growth inhibition, 96 h incubation
Method: as §1, §2, §3

[3] = target: T1, motor domain of the human kinesin spindle protein KSP/Eg5 (Homo sapiens, UniProt P52732); assay: Inhibition of the kinesin spindle protein KSP/Eg5 (ATPase activity, malachite green); format: biochemical; details: 10 nM KSP/Eg5, microtubuli, 500 μM ATP, 2 h at RT
T1 construct: The motor domain of the human kinesin spindle protein KSP/Eg5; purchased tebu-bio/Cytoskeleton Inc 027EG01-XL
T1 sequence (P52732 18-359 limits assumed): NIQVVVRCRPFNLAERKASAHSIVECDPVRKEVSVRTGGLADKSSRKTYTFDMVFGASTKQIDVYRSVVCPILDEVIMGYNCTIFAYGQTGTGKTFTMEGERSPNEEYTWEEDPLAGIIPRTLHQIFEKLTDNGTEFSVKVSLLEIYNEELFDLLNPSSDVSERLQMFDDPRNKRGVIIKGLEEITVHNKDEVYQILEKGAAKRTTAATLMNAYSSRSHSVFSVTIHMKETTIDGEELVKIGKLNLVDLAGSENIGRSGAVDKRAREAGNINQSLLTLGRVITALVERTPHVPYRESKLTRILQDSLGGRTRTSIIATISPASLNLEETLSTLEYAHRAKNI
Method: The motor domain of the human kinesin spindle protein KSP/Eg5 (tebu-bio/Cytoskeleton Inc, No. 027EG01-XL) was incubated in a concentration of 10 nM with microtubuli (bovine or porcine, tebu-bio/Cytoskeleton Inc) stabilized with 50 μg/ml taxol (Sigma No. T7191-5MG) for 5 min at RT in 15 mM PIPES, pH 6.8 (5 mM MgCl2 and 10 mM DTT, Sigma). […] Incubation was at RT for 2 h. ATPase activity was detected by detecting the inorganic phosphate formed using malachite green (Biomol). […] The positive controls used were monastrol (Sigma, M8515-1 mg) and ispinesib (AdooQ Bioscience A10486). The individual data of the dose-activity curve are eight-fold determinations. The IC50 values are means of two independent experiments.

[4] = Assay for determination of stability in rat plasma; format: in vitro ADME; details: 1 μg/ml, 37° C., 24 h
Method: To examine the stability of compounds A and B, 1 ml of rat plasma in a 1.5 ml Eppendorf tube in each case was equilibrated to 37° C. on an Eppendorf shaker. A stock solution (9 acetonitrile/1 DMSO) having a concentration of 100 μg/ml for compound A and compound B was prepared. 10 μl in each case of the stock solution were pipetted into 1 ml of equilibrated rat plasma, so as to give a concentration of 1 μg/ml.
The samples were kept at 450 rpm and 37° C. for 24 h. At each of the sampling times of 0, 0.25 h, 0.5 h, 1 h, 2 h, 4 h, 6 h and 24 h, 50 μl were taken and pipetted into 150 μl of methanol. Internal standard was included in the initial charge of methanol at a concentration of 0.05 μg/ml. After brief vortexing, 300 μl of 10 mM ammonium acetate buffer (pH 6.8) were added and centrifuged at 1881 g for 10 min. The samples were then analysed by means of RP-HPLC analysis and by LC-MS analysis.

[5] = tested on: KPL4: human breast cancer cell line; assay: MTT assay on KPL4; format: cell-based; details: KPL4, 96 h, growth inhibition, 96 h incubation
Method: as §1, §2, §3

## CNC(=O)[C@H](CCN(C(=O)CO)[C@@H](c1cc(-c2cc(F)ccc2F)cn1Cc1ccccc1)C(C)(C)C)NC(=O)[C@H](CC(N)=O)NC(=O)[C@H](C)NC(=O)[C@H](C)NC(=O)Cc1ccncc1 [Example R3r-LLL, N-(Pyridin-4-ylacetyl)-L-alanyl-L-alanyl-N^1-[(2S)-4-[{(1R)-1-[1-benzyl-4-(2,5-difluorophenyl)-1H-pyrrol-2-yl]-2,2-dimethylpropyl}(glycoloyl)amino]-1-(methylamino)-1-oxobutan-2-yl]-L-aspartamide, reference compound]
[1]
  IC50: 0.204 µM
[2]
  IC50: 0.232 µM
[3]
  IC50: 0.162 µM
[4]
  stability in rat plasma: stable over 24 h

## CC(C)(C)[C@H](c1cc(-c2cc(F)ccc2F)cn1Cc1ccccc1)N(CC[C@H](N)C(=O)NCCNC(=O)CCCC(=O)NCCCC[C@H](N)C(=O)O)C(=O)CO [Example M29, N^6-(5-{[2-({(2S)-2-Amino-4-[{(1R)-1-[1-benzyl-4-(2,5-difluorophenyl)-1H-pyrrol-2-yl]-2,2-dimethylpropyl} (glycoloyl)amino]butanoyl}amino)ethyl]amino}-5-oxopentanoyl)-L-lysine/trifluoroacetic acid (1:1)]
[1]
  IC50: 0.187 µM
[2]
  IC50: 0.207 µM
[3]
  IC50: 0.00203 µM

## CC(C)(C)[C@H](c1cc(-c2cc(F)ccc2F)cn1Cc1ccccc1)N(CC[C@H](N)C(=O)NCCNC(=O)CNC(=O)CCCC(=O)NCCCC[C@H](N)C(=O)O)C(=O)CO [Example M28, N^6—{(3R,7S)-7-Amino-3-[1-benzyl-4-(2,5-difluorophenyl)-1H-pyrrol-2-yl]-4-glycoloyl-2,2-dimethyl-8,13,16,20-tetraoxo-4,9,12,15-tetraazaicosan-20-yl}-L-lysine/trifluoroacetic acid (1:1)]
[5]
  IC50: 0.21 µM
[1]
  IC50: 0.155 µM
[2]
  IC50: 0.187 µM
[3]
  IC50: 0.00141 µM
